Reference: patent US20250026776A1, “Method for Simultaneously Separating and Purifying Two Galloylated Myricitrins from Morella rubra Leaves, and Use therefor” (Zhejiang University, priority 2022, published 2025)
Like-named read-outs stand apart in the source and are kept apart here.

Key:
α-glucosidase [1] = assay: α-glucosidase inhibition assay (PNPG hydrolysis, absorbance at 405 nm); format: biochemical; conditions: α-glucosidase 0.2 U/mL, phosphate buffer pH 6.8, 37° C., PNPG substrate, IC50 calculated with SPSS, read-out: α-glucosidase inhibitory activity IC50
Protocol: The concentration of pNP in the reaction solution, as measured by a plate reader, allows for the detection of the sample's ability to inhibit the activity of α-glucosidase. […] The mixture is then incubated at 37° C. for 15 minutes, after which 20 μL of PNPG solution (2.5 mM) is added. After a 15-minute reaction at 37° C., 80 μL of Na2CO3 solution (2.5 mM) is added, and the absorbance at 405 nm (ODtest) is measured using a plate reader. […] The formula for calculating the enzyme activity inhibition rate is as follows: [formula] The inhibitory effect of the tested monomers on α-glucosidase a gradient concentrations was used to calculate the IC50 values with SPSS.

α-glucosidase [2] = conditions: cited from earlier work

Structure (SMILES) | IC50 (α-glucosidase [1]) [nM] | IC50 (α-glucosidase [1]; listed as myricetin-3-O-(4″-O-galloyl)-α-L-rhamnoside) [nM] | rank of α-glucosidase inhibitory activity among 27 dietary flavonoids (α-glucosidase [2]; comparative study of 27 dietary flavonoids (Jia Y, et al., 2019)) | rank of α-glucosidase inhibitory activity among 15 types of flavonoids (α-glucosidase [2]; report on 15 types of flavonoids (He C., et al., 2019))
CC1OC(Oc2c(-c3cc(O)c(O)c(O)c3)oc3cc(O)cc(O)c3c2=O)C(OC(=O)c2cc(O)c(O)c(O)c2)C(O)C1O [myricetin-3-O-(2″-galloyl)-α-L-rhamnoside] | 1320 | – | – | –
CC1OC(Oc2c(-c3cc(O)c(O)c(O)c3)oc3cc(O)cc(O)c3c2=O)C(O)C(O)C1OC(=O)c1cc(O)c(O)c(O)c1 [myricetin-3-O-(4″-galloyl)-α-L-rhamnoside] | 1770 | 15600 | – | –
O=c1c(O)c(-c2cc(O)c(O)c(O)c2)oc2cc(O)cc(O)c12 [myricetin] | 1770 | – | strongest inhibitor | strongest inhibitory effect
